According to patent publication US10722575B2, “Use of 1,3-diphenylprop-2-en-1-one derivatives for treating liver disorders” (GENFIT, priority 2009, dated 2020):
Marks after values point to notes of the source that are not given here.

How the values were obtained:
[1] = tested on: hApoE2 KI/PPARalpha KO mice; assay: hApoE2 KI/PPARalpha KO mice on Western diet, hepatic lipid analysis (liver triglycerides); type: in vivo; details: 30 mg/kg/day by gavage, 6 weeks, FIG. 4D
Experimental: (§1) The compounds of the General Formula (I) were tested in vivo in a high fat diet mice model. Dyslipidemic “humanized” hApoE2 KI deficient for PPARalpha were fed a Western diet and treated during 6 weeks. The compounds of interest, including the Compound 29 of WO 2004/005233 at 30 mg/kg/day and the Compound 1 of WO 2007/147879 at 30 mg/kg/day were orally administrated by gavage. At the end of the protocol, animals were sacrificed, livers were harvested and the hepatic expression of relevant genes implicated in the liver inflammation and the fibrosis processes were evaluated by quantitative RT-PCR. In parallel, liver triglycerides contents were evaluated (Panels A-D). Statistical analysis was performed as indicated for FIG. 1.
Animals were fed a Western diet (20% saturated fat and 0.2% cholesterol, Harlan Teklad TD88137) during 2 weeks in the first study, that involved the daily administration of Cpd 29 (at 30 mg/kg/day by oral gavage), and during 6 weeks in the second study, that involved the daily administration of Compound 1 of WO 2007147879 (Cpd1, at 30 mg/kg/day by oral gavage). […]
(§2) In another study, the liver-specific anti-inflammatory and anti-fibrotic properties effects of Cpd 29 and Compound 1 of WO 2007/147879 (Cpd 1) were evaluated in the hApoE2 KI/PPARalpha KO mice that were fed a Western diet and daily treated with the selected compounds during 6 weeks.

[2] = tested on: hApoE2 KI/PPARalpha KO mice; assay: hApoE2 KI/PPARalpha KO mice on Western diet, hepatic gene expression by quantitative RT-PCR; type: in vivo; details: 30 mg/kg/day by gavage, 6 weeks
Experimental: as §1
Animals were fed a Western diet (20% saturated fat and 0.2% cholesterol, Harlan Teklad TD88137) during 2 weeks in the first study, that involved the daily administration of Cpd 29 (at 30 mg/kg/day by oral gavage), and during 6 weeks in the second study, that involved the daily administration of Compound 1 of WO 2007147879 (Cpd1, at 30 mg/kg/day by oral gavage). Control animals were treated with vehicle only (Carboxymethlycellulose 1%+Tween-80 0.1%). Animals had access to food and water ad libitum.
At the end of the studies, the animals were weighed and sacrificed under anesthesia. Blood was collected from the retro-orbital sinus; plasma was obtained by centrifugation (4 000 rpm, at 4° C. for 15 min) and subsequently frozen and stored at −20° C. Tissues and livers were isolated and snap-frozen in liquid nitrogen and stored at −80° C. for subsequent analysis (gene expression and biochemistry) or fixed in 4% paraformaldehyde for histology.
Total RNA was isolated from frozen livers using the NucleoSpin® 96 RNA kit (Macherey Nagel), according to the manufacturer's instructions. Reverse transcription was performed on 1 μg of total RNA by action of 1 μl of MMLV-RT enzyme (Invitrogen) during 1 hour at 37° C. in a total volume of 30 μl. The reaction conditions were 1× buffer (Invitrogen), 1.5 mM DTT (Invitrogen), 0.18 mM dNTPs (Promega), 200 ng pdN6 (Amersham), 30U RNase inhibitor (Promega). Quantitative PCR was then carried out using the MyiQ Single-Color Real-Time PCR Detection System (Biorad). Briefly PCR reactions were performed in 96 well plates on 5 μl of diluted reverse transcription mix using the iQ SYBR Green Supermix kit. The reaction conditions were: 25 μl of volume reaction, 3 mM of MgCl2, and 0.5 μl of each reverse and forward primer solutions (10 pMol), Tm of 60° C.
The quantity of fluorescence emitted is directly proportional to the quantity of complementary DNA present at the start of the reaction and amplified during the PCR. The relative levels of expression were determined using the standard curve for each transcript. The results were then normalized in regard to the signals obtained with the 36B4 control (a reference transcript for hepatic gene expression). The induction factor, i.e. the ratio between the relative signal induced by the compound according to the invention and the average of the values relating to the control group, was then calculated for each sample. The higher this factor, the more the compound promotes target gene expression. The final result is depicted as the average of the induction values in each experimental group.
as §2

[3] = tested on: human primary hepatic stellate cells (hHSC); assay: TGFβ1-induced hHSC activation, gene expression by quantitative PCR; type: cell-based; details: TGFβ1 1 ng/ml, 24 hours; for inhibition at 10 µM: Homo sapiens; for Inhibition of the TGFβ1-induced hHSC activation: Col1α1 / Inhibition of the TGFβ1-induced hHSC activation: Col4α1 / Inhibition of the TGFβ1-induced hHSC activation: αSMA: 10 μM
Experimental: (§3) Compounds were dissolved in dimethyl sulfoxide (DMSO, Fluka cat #41640)
(§4) The human primary hepatic stellate cells (hHSC) (ScienCell) were cultured in STeCM medium (ScienCell cat #5301) that was supplemented with 2% fetal bovine serum (FBS, ScienCell cat #0010), 1% penicillin/streptomycine (ScienCell cat #0503) and stellate cell growth supplement (SteCGS; ScienCell cat #5352). Culture plastics were coated with Poly-L Lysine (Sigma cat # P4707).
The human primary hepatic stellate cells (hHSC) (ScienCell) were cultured under standard conditions, as described above. For experiments to determine gene expression patterns, hHSC were plated at a density of 7×10^4 cells/well into 24-well plates and were cultured overnight. Next day, culture medium was replaced by serum-free and SteCGS-free medium for an additional 16 hours. Cells were treated with a compound of General Formula (I) in addition to TGFβ1 (1 ng/ml) in a serum-free and SteCGS-free medium for 24 hours.
Total RNA was isolated using Nucleospin® 96 RNA kit (Macherey Nagel) following manufacturer's instructions. 100 ng of total RNA were reverse transcribed in cDNA using M-MLV RT (Moloney Murine Leukemia Virus Reverse Transcriptase) (Invitrogen cat #28025) in presence of RT buffer 1× (Invitrogen), 1 mM DTT (Invitrogen), 0.18 mM dNTPs (Promega), 200 ng pdN6 (Amersham) and 30U of RNase inhibitor (Promega).
Quantitative PCR was then carried out using the CFX96 TOUCH™ Real-Time PCR Detection System (Biorad). Briefly, PCR reactions were performed in 96 well plates on 5 μl of 5× diluted reverse transcription mix using the iQ SYBR Green Supermix kit. The experimental conditions were: 25 μl of volume reaction, 3 mM of MgCl2, and 0.5 μl each of reverse and forward primers (10 pMol).
Expression levels were normalized using the expression of 36B4 gene as reference (sequences SEQ ID NO: 1 and SEQ ID NO: 2 as shown above).
For each gene, the standard curves were drawn by selecting the best points (at least three points) in order to have PCR reaction efficiency close to 100% and a correlation coefficient close to 1. Expression levels were determined using the standard curve equation for both the housekeeping gene and the target gene (taking into account the specific PCR efficiency of each target gene).

[4] = tested on: human primary hepatic stellate cells (hHSC); assay: PDGF-BB-induced hHSC proliferation, BrdU incorporation; type: cell-based; details: PDGF-BB 10 ng/ml; for Inhibition of the PDGF-BB-induced hHSC proliferation: BrdU Incorporation: 10 μM
Experimental: as §3, §4
hHSC were plated at a density of 1.2×10^4 cells/well into 96-well plates and were cultured overnight at 37° C. and 5% CO2, followed by washing of cells with PBS (Invitrogen cat #14190) and replacing the growth medium with a serum-free and SteCGS-free medium for an additional 24 hours. For PDGF-induced proliferation assay, cells were pre-treated with a compound of General Formula (I) for 1 hour before the addition of PDGF-BB (10 ng/ml; R&D Systems cat #520-BB). Treatments were then continued for additional 20 hours.
Cell proliferation was measured by bromodeoxyuridine (BrdU) incorporation using a BrdU labeling and detection kit (Roche cat #11647229001). BrdU labeling solution was added to cells, followed by incubation for another 4 hours before fixation, addition of nucleases, addition of anti-BrdU-POD and peroxidase substrate. The absorbance at 405 nm (with a reference wavelength at 690 nm) was measured using an ELISA plate reader (Tecan).

| Structure (SMILES) | Inhibition of the TGFβ1-induced hHSC activation: Col1α1 [3] | Inhibition of the TGFβ1-induced hHSC activation: Col4α1 [3] [% ***] | Inhibition of the TGFβ1-induced hHSC activation: αSMA [3] [% ***] | Inhibition of the PDGF-BB-induced hHSC proliferation: BrdU Incorporation [4] | other results |
| --- | --- | --- | --- | --- | --- |
| CSc1ccc(C(=O)CCc2cc(C)c(OC(C)(C)C(=O)O)c(C)c2)cc1 [Cpd 1, 2-[2,6-dimethyl-4-[3-[4-(methylthio)phenyl]-3-oxo-propyl]phenoxy]-2-methylpropanoic acid] | – | – | – | – | triglycerides accumulation in the liver [1]: prevented; liver expression of TNFα ([2]; FIG. 4A): inhibited; liver expression of TGFβ ([2]; FIG. 4B): inhibited; liver expression of collagen ([2]; FIG. 4C): inhibited |
| CSc1ccc(C(=O)C=Cc2cc(C)c(OCC(=O)O)c(C)c2)cc1 [Cpd 72 US20070032543, 1-[4-methylthiophenyl]-3-[3,5-dimethyl-4-carboxymethyloxyphenyl]prop-2-en-1-one] | – | – | – | – | inhibition at 10 µM ([3]; read-out: Inhibition of the TGFβ1-induced hHSC activation: Col1α1): 37%; inhibition at 10 µM ([3]; read-out: Inhibition of the TGFβ1-induced hHSC activation: Col4α1): 51%; inhibition at 10 µM ([3]; read-out: Inhibition of the TGFβ1-induced hHSC activation: αSMA): 74%; inhibition at 10 µM ([4]; Homo sapiens): 126% |
| CSc1ccc(C(=O)C=Cc2cc(C(C)C)c(OCC(=O)O)c(C(C)C)c2)cc1 [Cpd 74 US20070032543, 1-[4-methylthiophenyl]-3-[3,5-diisopropyl-4-carboxymethyloxyphenyl]prop-2-en-one] | −82% *** | −85 | −97 | −127% *** | – |
| COc1ccc(C(=O)C=Cc2cc(C)c(OC(C)(C)C(=O)O)c(C)c2)cc1 [Cpd 80 US20070032543, 1-[4-methyoxyphenyl]-3-[3,5-dimethyl-4-carboxydimethylmethyloxyphenyl]prop-2-en-1-one] | −64% ** | −66 | −55 | −136% *** | – |
| CCCCCCSc1ccc(C(=O)C=Cc2cc(C)c(OC(C)(C)C(=O)O)c(C)c2)cc1 [Cpd 84 US20070032543, 1-[4-hexylthiophenyl]-3-[3,5-dimethyl-4-carboxydimethylmethyloxyphenyl]prop-2-en-1-one] | −60% ** | −64 | −64 | −33% | – |
